From US7186725B2, “Anti-inflammatory compositions and methods” (Genzyme Corporation, priority 2003, dated 2007)
Where two headings read alike, the source gives them in different places.

Test system: purified rat T cells
Assay: Concanavalin A activated T-cell proliferation assay ([3H] thymidine uptake)
Type: cell-based
Conditions: 96 h, @ 1 mM
Method: Compounds of Formula I (above), based on an ethyl dimethylaminopropylurea (1) parent structure, have been discovered as active agents against a modified Concanavalin A activated T-cell proliferation assay using purified rat T-cells. These cells were incubated for 4 days and pulsed with [^3H] thymidine for the last 16 hrs of incubation. [^3H] Thymidine uptake was measured as the mean counts per minute (cpm) of duplicate experimental cultures. The compounds of the present invention were discovered by screening a compound library. (directed analogs of parent compound 1) using an assay designed to identify inhibitors of Concanavalin A stimulated T-cell proliferation. Normal dermal fibroblasts and kidney epithelial cell toxicity assays were run on active compounds to eliminate non-selective cytotoxic compounds.

[1] = Table 1, read-out: Thymidine Uptake (% Reduction @ 1 mM)
[2] = Table 2, read-out: Thymidine Uptake (% Reduction @ 1 mM)

## CCNC(=O)NCc1ccco1 [Compound 2]
[1]
  inhibition at 1000 µM: 16%

## CCNC(=O)NCC1CCCO1 (stereo not shown) [Compound 3]
[1]
  inhibition at 1000 µM: 26%

## CCNC(=O)NCC(c1ccccc1)c1ccccc1 [Compound 4]
[1]
  inhibition at 1000 µM: 26%

## CCNC(=O)NCCc1cccc(Cl)c1 [Compound 5]
[1]
  inhibition at 1000 µM: 24%

## CCNC(=O)NCCN1CCCCC1 [Compound 6]
[1]
  inhibition at 1000 µM: 33%

## CCNC(=O)Nc1cccc2nsnc12 [Compound 7]
[1]
  inhibition at 1000 µM: 25%

## CCNC(=O)Nc1nc2ccccc2s1 [Compound 8]
[1]
  inhibition at 1000 µM: 22%

## CCNC(=O)NN1CCCC1 [Compound 9]
[1]
  inhibition at 1000 µM: 16%

## CCNC(=O)Nc1cccc(OC(F)(F)F)c1 [Compound 10]
[1]
  inhibition at 1000 µM: 30%

## CCNC(=O)Nc1cc[nH]n1 [Compound 11]
[1]
  inhibition at 1000 µM: 35%

## CCNC(=O)NC(C)(C)CC(C)=O [Compound 12]
[1]
  inhibition at 1000 µM: 35%

## CCNC(=O)NC1CCN(C(=O)OCC)CC1 [Compound 13]
[1]
  inhibition at 1000 µM: 35%

## CCNC(=O)Nc1cccc(S(N)(=O)=O)c1 [Compound 14]
[1]
  inhibition at 1000 µM: 18%

## CCNC(=O)Nc1c(F)c(F)c(C#N)c(F)c1F [Compound 15]
[1]
  inhibition at 1000 µM: 26%

## CCNC(=O)Nc1ccc(C(N)=O)cc1 [Compound 16]
[1]
  inhibition at 1000 µM: 27%

## CCCNCCCNC(=O)NCC [Compound 17]
[1]
  inhibition at 1000 µM: 25%

## CCNC(=O)NOC(C)(C)C [Compound 18]
[1]
  inhibition at 1000 µM: 25%

## CCNC(=O)Nc1nc2cc(C)c(C)cc2[nH]1 [Compound 19, 1-(5,6-dimethyl-1H-benzoimidazol-2-yl)-3-ethyl urea]
[1]
  inhibition at 1000 µM: 77%

## CCNC(=O)Nc1cnccn1 [Compound 20]
[1]
  inhibition at 1000 µM: 55%

## CCNC(=O)Nc1ncnc2[nH]ncc12 [Compound 21]
[1]
  inhibition at 1000 µM: 95%

## CCNC(=O)Nn1cnnc1 [Compound 22]
[1]
  inhibition at 1000 µM: 19%

## CCNC(=O)NC(C(=O)OCC)C(=O)OCC [Compound 23]
[1]
  inhibition at 1000 µM: 12%

## C=CCNC(=O)NCC [Compound 24]
[1]
  inhibition at 1000 µM: 18%

## CCNC(=O)NCC(C)(C)C [Compound 25]
[1]
  inhibition at 1000 µM: 60%

## CCNC(=O)NCCCN1CCSCC1 [Compound 26]
[2]
  inhibition at 1000 µM: 16%

## CCNC(=O)NCCCN1CC(C)OC(C)C1 (stereo not shown) [Compound 28]
[2]
  inhibition at 1000 µM: 13%

## CCCN(CCCNC(=O)NCC)CC1CC1 [Compound 29]
[2]
  inhibition at 1000 µM: 23%

## CCNC(=O)NCCCN(CCO)Cc1ccccc1 [Compound 30]
[2]
  inhibition at 1000 µM: 12%
